This data set is described as follows: Stability of pure vitamin C and YHC-Vc in aqueous solution (color, pH, vitamin C content) at 50° C. in airtight container for four weeks. The class given is physicochemical.

As to `O=C1O[C@H]([C@@H](O)CO)C(O)=C1O` [vitamin C, ascorbic acid], where the note is “50° C., airtight glass container, four weeks, 3.0 wt % vitamin C solution or 10.0 wt % composite dispersion”, the change of color result was “abrupt change of color in the order from clear (colorless) to yellow, orange, and then red”. Where the note is “In 4 weeks, 50° C., airtight container”, the pH turned out to be 2.52. Moreover, under “at 50° C. for 4 weeks”, the pH condition maintained is given as approximately 2. Besides, the “remaining amount of vitamin C” value (in four weeks at 50° C. in airtight container) was “about 51%”.
